Reference: US10800791B2, “Triazole ACC inhibitors and uses thereof” (Gilead Apollo, LLC, priority 2015, dated 2020)
Converted amounts (≈) assume the structure as drawn. Like-named read-outs stand apart in the source and are kept apart here.

Legend:
[1] = test system: Fusarium virguliforme (Fv); test: Growth inhibition assay of fungal pathogens, Fv; assay type: cell-based; conditions: 48 h
How it was run: (§1)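 Spore suspension in 17% V8 liquid media; cpd final 50/10/2 or 2/0.4/0.08 ppm, 2% DMSO. OD600 + visual, 24 & 48 h; % inhibition at 48 h vs 2% DMSO ctrl.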

[2] = test system: Diplodia maydis (Dm); test: Growth inhibition assay of fungal pathogens, Dm; assay type: cell-based; conditions: Stenocarpella maydis, 48 h
How it was run: as §1

[3] = test system: Rhizoctonia solani (Rs); test: Growth inhibition assay of fungal pathogens, Rs; assay type: cell-based; conditions: 48 h
[4] = target: fungal (fACC2) (UniProt Q00955); conditions: read-out: fACC2 (in vitro ACC2 Inhibition Assay, IC50), ADP-Glo, 5 nM ACC2, 20 μM ATP, 20 μM acetyl-CoA
Chain of fungal (fACC2) (Q00955 whole entry): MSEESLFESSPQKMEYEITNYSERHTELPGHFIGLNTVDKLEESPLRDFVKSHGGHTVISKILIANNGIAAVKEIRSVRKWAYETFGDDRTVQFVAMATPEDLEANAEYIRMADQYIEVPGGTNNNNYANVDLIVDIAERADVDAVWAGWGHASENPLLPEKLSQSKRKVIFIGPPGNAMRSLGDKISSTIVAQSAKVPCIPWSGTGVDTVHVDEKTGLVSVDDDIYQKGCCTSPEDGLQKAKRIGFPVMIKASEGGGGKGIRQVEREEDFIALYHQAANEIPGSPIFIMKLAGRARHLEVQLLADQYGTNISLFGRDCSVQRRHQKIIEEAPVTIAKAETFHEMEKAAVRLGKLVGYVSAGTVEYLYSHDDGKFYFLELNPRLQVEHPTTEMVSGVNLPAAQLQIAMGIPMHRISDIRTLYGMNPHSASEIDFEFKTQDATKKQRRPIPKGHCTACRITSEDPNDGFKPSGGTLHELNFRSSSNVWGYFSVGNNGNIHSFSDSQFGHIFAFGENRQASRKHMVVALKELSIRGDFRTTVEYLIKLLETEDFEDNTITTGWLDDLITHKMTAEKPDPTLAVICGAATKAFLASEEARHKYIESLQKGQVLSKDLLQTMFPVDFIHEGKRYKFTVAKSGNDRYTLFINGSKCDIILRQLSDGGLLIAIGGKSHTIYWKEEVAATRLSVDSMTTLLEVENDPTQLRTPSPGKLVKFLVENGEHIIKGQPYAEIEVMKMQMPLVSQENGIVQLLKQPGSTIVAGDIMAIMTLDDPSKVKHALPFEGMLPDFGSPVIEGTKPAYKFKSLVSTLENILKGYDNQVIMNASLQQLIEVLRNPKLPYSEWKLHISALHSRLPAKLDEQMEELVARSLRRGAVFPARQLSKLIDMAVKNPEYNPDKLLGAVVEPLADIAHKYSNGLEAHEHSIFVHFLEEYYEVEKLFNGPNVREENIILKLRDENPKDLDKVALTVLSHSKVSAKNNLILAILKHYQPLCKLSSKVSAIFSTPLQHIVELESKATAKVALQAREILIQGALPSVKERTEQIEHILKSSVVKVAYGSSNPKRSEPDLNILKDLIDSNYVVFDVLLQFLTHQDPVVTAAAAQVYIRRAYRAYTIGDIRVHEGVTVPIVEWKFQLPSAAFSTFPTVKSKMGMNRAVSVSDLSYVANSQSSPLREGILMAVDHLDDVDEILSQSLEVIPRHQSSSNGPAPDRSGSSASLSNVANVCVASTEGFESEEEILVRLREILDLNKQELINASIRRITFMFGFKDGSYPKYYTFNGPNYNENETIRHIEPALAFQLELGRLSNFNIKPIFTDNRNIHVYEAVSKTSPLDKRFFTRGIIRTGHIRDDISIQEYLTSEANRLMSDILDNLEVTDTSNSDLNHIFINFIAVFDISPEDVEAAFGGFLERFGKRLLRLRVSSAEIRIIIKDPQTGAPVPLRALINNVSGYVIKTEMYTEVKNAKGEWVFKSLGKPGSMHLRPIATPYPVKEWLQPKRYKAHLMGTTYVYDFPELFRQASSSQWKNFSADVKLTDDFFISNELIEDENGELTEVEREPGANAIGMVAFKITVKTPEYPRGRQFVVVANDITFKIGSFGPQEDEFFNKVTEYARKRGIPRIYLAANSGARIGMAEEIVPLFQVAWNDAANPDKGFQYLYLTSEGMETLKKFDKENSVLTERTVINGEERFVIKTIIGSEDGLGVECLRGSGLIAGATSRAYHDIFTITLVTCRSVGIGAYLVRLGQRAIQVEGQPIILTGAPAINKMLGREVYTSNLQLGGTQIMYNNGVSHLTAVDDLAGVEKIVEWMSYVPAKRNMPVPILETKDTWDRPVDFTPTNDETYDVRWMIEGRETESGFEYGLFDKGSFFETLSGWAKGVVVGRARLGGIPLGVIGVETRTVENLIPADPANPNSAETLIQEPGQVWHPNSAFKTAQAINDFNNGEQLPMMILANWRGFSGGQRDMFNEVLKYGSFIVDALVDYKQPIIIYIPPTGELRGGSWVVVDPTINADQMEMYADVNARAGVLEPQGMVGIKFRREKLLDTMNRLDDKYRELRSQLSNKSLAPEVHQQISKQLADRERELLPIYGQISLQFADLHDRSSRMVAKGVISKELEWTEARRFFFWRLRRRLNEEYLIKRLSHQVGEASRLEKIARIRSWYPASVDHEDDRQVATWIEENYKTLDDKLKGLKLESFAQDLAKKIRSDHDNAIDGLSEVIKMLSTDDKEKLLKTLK

[5] = test system: C. parapsilosis; test: Antifungal Activity Assay (broth microtiter MIC), C. parapsilosis; assay type: cell-based, Candida parapsilosis; conditions: Lodderomyces parapsilosis, ATCC22019, 48 h
How it was run: (§2)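 Colonies from 24 h Sabouraud dextrose agar plates (35° C) are suspended in RPMI 1640+MOPS and diluted to give 2.5×10^3 CFU/mL in the wells. Plates are set up per CLSI M27-A3. Visual MIC is recorded at 48 h.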

[6] = target: human (hACC2) (Homo sapiens, UniProt O00763); test: In vitro ACC inhibition assay (ADP-Glo), hACC2; assay type: biochemical; conditions: 5 nM ACC2, 20 μM ATP, 20 μM acetyl-CoA
Chain of human (hACC2) (O00763 whole entry): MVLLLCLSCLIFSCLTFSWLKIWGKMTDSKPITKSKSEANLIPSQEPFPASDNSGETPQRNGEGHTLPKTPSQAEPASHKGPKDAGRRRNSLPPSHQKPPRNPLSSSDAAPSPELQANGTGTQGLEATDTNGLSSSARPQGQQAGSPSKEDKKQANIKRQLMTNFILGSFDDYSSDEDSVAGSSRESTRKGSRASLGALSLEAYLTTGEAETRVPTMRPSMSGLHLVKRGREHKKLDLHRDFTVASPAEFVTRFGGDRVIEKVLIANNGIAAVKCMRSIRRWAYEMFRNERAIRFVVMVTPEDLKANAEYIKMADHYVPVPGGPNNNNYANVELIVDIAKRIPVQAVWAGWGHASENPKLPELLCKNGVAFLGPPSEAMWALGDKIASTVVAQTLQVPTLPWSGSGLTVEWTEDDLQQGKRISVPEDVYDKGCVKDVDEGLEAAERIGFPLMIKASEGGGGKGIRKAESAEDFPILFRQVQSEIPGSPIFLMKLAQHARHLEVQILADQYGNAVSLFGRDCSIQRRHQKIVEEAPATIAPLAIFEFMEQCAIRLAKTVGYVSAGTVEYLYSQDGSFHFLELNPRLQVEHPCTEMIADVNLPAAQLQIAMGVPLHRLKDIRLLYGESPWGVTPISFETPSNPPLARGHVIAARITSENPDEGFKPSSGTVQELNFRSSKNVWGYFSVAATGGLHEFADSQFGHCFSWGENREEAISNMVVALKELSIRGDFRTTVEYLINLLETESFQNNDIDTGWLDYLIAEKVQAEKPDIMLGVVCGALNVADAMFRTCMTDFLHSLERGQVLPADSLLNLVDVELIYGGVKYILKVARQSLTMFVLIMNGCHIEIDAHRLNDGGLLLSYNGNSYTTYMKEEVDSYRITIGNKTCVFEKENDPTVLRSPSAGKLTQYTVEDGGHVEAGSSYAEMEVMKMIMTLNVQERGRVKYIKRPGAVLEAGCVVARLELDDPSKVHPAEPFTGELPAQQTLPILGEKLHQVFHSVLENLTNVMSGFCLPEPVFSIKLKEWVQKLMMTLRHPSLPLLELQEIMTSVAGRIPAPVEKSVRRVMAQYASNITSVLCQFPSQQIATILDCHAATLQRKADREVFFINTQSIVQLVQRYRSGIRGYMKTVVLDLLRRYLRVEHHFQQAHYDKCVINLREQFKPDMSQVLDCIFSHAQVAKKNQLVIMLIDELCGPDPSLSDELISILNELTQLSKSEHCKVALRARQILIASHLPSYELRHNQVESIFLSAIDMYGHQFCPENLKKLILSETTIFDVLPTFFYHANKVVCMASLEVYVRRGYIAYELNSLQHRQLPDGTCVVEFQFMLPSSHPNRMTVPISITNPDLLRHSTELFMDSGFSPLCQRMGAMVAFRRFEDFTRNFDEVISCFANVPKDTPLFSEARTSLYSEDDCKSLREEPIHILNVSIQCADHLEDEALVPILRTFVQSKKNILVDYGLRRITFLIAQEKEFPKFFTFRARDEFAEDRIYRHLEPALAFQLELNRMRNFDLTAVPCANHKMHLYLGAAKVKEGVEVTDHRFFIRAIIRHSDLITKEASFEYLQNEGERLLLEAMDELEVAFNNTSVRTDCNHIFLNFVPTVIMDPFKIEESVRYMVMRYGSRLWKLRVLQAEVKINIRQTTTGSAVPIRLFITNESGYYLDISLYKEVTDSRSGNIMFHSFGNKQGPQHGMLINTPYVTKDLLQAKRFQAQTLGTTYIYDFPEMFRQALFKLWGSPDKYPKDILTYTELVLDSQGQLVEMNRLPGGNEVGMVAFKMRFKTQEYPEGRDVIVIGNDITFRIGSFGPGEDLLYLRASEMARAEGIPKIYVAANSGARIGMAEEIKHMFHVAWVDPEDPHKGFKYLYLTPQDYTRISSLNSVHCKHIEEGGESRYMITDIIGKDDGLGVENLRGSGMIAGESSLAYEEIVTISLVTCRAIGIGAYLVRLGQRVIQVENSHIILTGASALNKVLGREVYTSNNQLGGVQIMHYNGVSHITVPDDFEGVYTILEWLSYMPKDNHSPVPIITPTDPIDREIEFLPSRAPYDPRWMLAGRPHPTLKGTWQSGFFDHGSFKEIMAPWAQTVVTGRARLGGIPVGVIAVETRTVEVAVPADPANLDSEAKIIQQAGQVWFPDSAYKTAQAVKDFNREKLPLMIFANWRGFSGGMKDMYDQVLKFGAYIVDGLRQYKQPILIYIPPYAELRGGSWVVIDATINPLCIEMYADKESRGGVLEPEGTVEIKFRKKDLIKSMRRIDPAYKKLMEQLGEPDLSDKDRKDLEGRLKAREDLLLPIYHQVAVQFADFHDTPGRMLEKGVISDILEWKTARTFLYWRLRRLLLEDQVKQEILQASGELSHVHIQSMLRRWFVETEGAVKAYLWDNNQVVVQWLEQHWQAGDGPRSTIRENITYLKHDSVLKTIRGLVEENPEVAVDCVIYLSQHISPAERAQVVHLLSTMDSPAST
Procedure: The detailed procedure is as follows. […] 10 μL ADP glo reagent was added. […] 20 μL kinase detection reagent was added.

[7] = test system: C. krusei; test: Antifungal Activity Assay (broth microtiter MIC), C. krusei; assay type: cell-based, Candida krusei; conditions: Pichia kudriavzevii, ATCC6258, 48 h
How it was run: as §2

[8] = test system: Botrtyis cinerea (Bc); test: Growth inhibition assay of fungal pathogens, Bc; assay type: cell-based; conditions: 48 h
How it was run: as §1

[9] = test system: C. albicans; test: Antifungal Activity Assay (broth microtiter MIC), C. albicans; assay type: cell-based, Candida albicans; conditions: Candida albicans, ATCC90028, 48 h
How it was run: as §2

[10] = test system: Phytophthora capsici (Pc); test: Growth inhibition assay of fungal pathogens, Pc; assay type: cell-based; conditions: 48 h
How it was run: as §1

[11] = growth inhibition at 48 hours vs 2% DMSO control, read-out: Concentration at 90% Inhibition Fv
[12] = growth inhibition vs 2% DMSO control at 48 hours, read-out: Concentration at 90% Inhibition Fv
[13] = Diplodia maydis, growth inhibition at 48 hours vs 2% DMSO control, read-out: Concentration at 90% Inhibition Dm
[14] = Diplodia maydis, growth inhibition vs 2% DMSO control at 48 hours, read-out: Concentration at 90% Inhibition Dm
[15] = mycelial plugs, growth inhibition at 48 hours vs 2% DMSO control, read-out: Concentration at 90% Inhibition Rs
[16] = mycelial plugs, growth inhibition vs 2% DMSO control at 48 hours, read-out: Concentration at 90% Inhibition Rs
[17] = Table 3a, ATCC 22019, 3 replicates, MIC recorded at 48 h, read-out: MIC, C. parapsilosis ATCC 22019
[18] = Table 3b (additional results), ATCC 22019, 3 replicates, MIC recorded at 48 h, read-out: MIC, C. parapsilosis ATCC 22019
[19] = Table 3a, ATCC 6258, 3 replicates, MIC recorded at 48 h, read-out: MIC, C. krusei ATCC 6258
[20] = Table 3b (additional results), ATCC 6258, 3 replicates, MIC recorded at 48 h, read-out: MIC, C. krusei ATCC 6258
[21] = Botrtyis cinerea, growth inhibition at 48 hours vs 2% DMSO control, read-out: Concentration at 90% Inhibition Bc
[22] = Botrtyis cinerea, growth inhibition vs 2% DMSO control at 48 hours, read-out: Concentration at 90% Inhibition Bc
[23] = Table 3a, ATCC 90028, 3 replicates, MIC recorded at 48 h, read-out: MIC, C. albicans ATCC 90028
[24] = Table 3b (additional results), ATCC 90028, 3 replicates, MIC recorded at 48 h, read-out: MIC, C. albicans ATCC 90028
[25] = growth inhibition at 48 hours vs 2% DMSO control, read-out: Concentration at 90% Inhibition Pc
[26] = growth inhibition vs 2% DMSO control at 48 hours, read-out: Concentration at 90% Inhibition Pc

Compound	IC90 [1, 11] [mg/L]	IC90 [1, 12] [mg/L]	IC90 [2, 13] [mg/L]	IC90 [2, 14] [mg/L]	IC90 [3, 15] [mg/L]	IC90 [3, 16] [mg/L]	IC50 ([4]; Table 2a) [nM]	IC50 ([4]; Table 2b, additional results) [nM]	MIC [5, 17] [mg/L]	MIC [5, 18] [mg/L]	IC50 ([6]; Table 2a) [nM]	IC50 ([6]; Table 2b, additional results) [nM]	MIC [7, 19] [mg/L]	MIC [7, 20] [mg/L]	IC90 [8, 21] [mg/L]	IC90 [8, 22] [mg/L]	MIC [9, 23] [mg/L]	MIC [9, 24] [mg/L]	IC90 [10, 25] [mg/L]	IC90 [10, 26] [mg/L]	also measured
C=CCN(C)C(=O)C(C)(C)n1c(=O)c2c(C)c(-n3nccn3)sc2n(C[C@H](OC2CCOCC2)c2cc(F)ccc2OC)c1=O [Compound I-71, (R)—N-allyl-2-(1-(2-(5-fluoro-2-methoxyphenyl)-2-((tetrahydro-2H-pyran-4-yl)oxy)ethyl)-5-methyl-2,4-dioxo-6-(2H-1,2,3-triazol-2-yl)-1,4-dihydrothieno[2,3-d]pyrimidin-3(2H)-yl)-N,2-dimethylpropanamide]	2 (≈ 3.12 µM)	2 (≈ 3.12 µM)	0.4 (≈ 0.624 µM)	0.4 (≈ 0.624 µM)	0.08 (≈ 0.125 µM)	0.08 (≈ 0.125 µM)	1 to 5	1 to 5	0.25 to 1 (≈ 0.39 to 1.56 µM)	1.01 to 2 (≈ 1.58 to 3.12 µM)	1 to 5	1 to 5	0.25 to 1 (≈ 0.39 to 1.56 µM)	0.25 to 1 (≈ 0.39 to 1.56 µM)	0.4 (≈ 0.624 µM)	0.4 (≈ 0.624 µM)	0.25 to 1 (≈ 0.39 to 1.56 µM)	0.25 to 1 (≈ 0.39 to 1.56 µM)	> 50	> 50	
C=CCO[C@@H](Cn1c(=O)n(C(C)(C)C(=O)NC(C)C)c(=O)c2c(C)c(-n3nccn3)sc21)c1cc(F)ccc1OC [Compound I-72, (R)-2-(1-(2-(allyloxy)-2-(5-fluoro-2-methoxyphenyl)ethyl)-5-methyl-2,4-dioxo-6-(2H-1,2,3-triazol-2-yl)-1,4-dihydrothieno[2,3-d]pyrimidin-3(2H)-yl)-N-isopropyl-2-methylpropanamide]							1 to 5	1 to 5			1 to 5	1 to 5									IC90 ([1]; read-out: Concentration at 90% Inhibition Fv, Fusarium virguliforme, growth inhibition at 48 hours vs 2% DMSO control): 0.4 mg/L (≈ 0.684 µM); IC90 ([1]; read-out: Concentration at 90% Inhibition Fv, Fusarium virguliforme, growth inhibition vs 2% DMSO control at 48 hours): 0.4 mg/L (≈ 0.684 µM); IC90 ([2]; read-out: Concentration at 90% Inhibition Dm, Diplodia maydis, growth inhibition at 48 hours vs 2% DMSO control): 2 mg/L (≈ 3.42 µM); IC90 ([2]; read-out: Concentration at 90% Inhibition Dm, Diplodia maydis, growth inhibition vs 2% DMSO control at 48 hours): 2 mg/L (≈ 3.42 µM); IC90 ([3]; read-out: Concentration at 90% Inhibition Rs, Rhizoctonia solani, mycelial plugs, growth inhibition at 48 hours vs 2% DMSO control): 0.4 mg/L (≈ 0.684 µM); IC90 ([3]; read-out: Concentration at 90% Inhibition Rs, Rhizoctonia solani, mycelial plugs, growth inhibition vs 2% DMSO control at 48 hours): 0.4 mg/L (≈ 0.684 µM); MIC ([5]; read-out: MIC, C. parapsilosis ATCC 22019, Table 3a, 3 replicates, MIC recorded at 48 h): 1.1 to 2 mg/L (≈ 1.88 to 3.42 µM); MIC ([5]; read-out: MIC, C. parapsilosis ATCC 22019, Table 3b (additional results), 3 replicates, MIC recorded at 48 h): 1.01 to 2 mg/L (≈ 1.73 to 3.42 µM); MIC ([7]; read-out: MIC, C. krusei ATCC 6258, Table 3a, 3 replicates, MIC recorded at 48 h): 0.25 to 1 mg/L (≈ 0.428 to 1.71 µM); MIC ([7]; read-out: MIC, C. krusei ATCC 6258, Table 3b (additional results), 3 replicates, MIC recorded at 48 h): 0.25 to 1 mg/L (≈ 0.428 to 1.71 µM); IC90 ([8]; read-out: Concentration at 90% Inhibition Bc, Botrtyis cinerea, growth inhibition at 48 hours vs 2% DMSO control): 2 mg/L (≈ 3.42 µM); IC90 ([8]; read-out: Concentration at 90% Inhibition Bc, Botrtyis cinerea, growth inhibition vs 2% DMSO control at 48 hours): 2 mg/L (≈ 3.42 µM); MIC ([9]; read-out: MIC, C. albicans ATCC 90028, Table 3a, 3 replicates, MIC recorded at 48 h): 2.1 to 4 mg/L (≈ 3.59 to 6.84 µM); MIC ([9]; read-out: MIC, C. albicans ATCC 90028, Table 3b (additional results), 3 replicates, MIC recorded at 48 h): 1.01 to 2 mg/L (≈ 1.73 to 3.42 µM); IC90 ([10]; read-out: Concentration at 90% Inhibition Pc, Phytophthora capsici, growth inhibition at 48 hours vs 2% DMSO control): > 50 mg/L; IC90 ([10]; read-out: Concentration at 90% Inhibition Pc, Phytophthora capsici, growth inhibition vs 2% DMSO control at 48 hours): > 50 mg/L
COc1ccc(F)cc1[C@H](Cn1c(=O)n(C(C)(C)C(=O)NC2CC2)c(=O)c2c(C)c(-n3nccn3)sc21)OC(C)C [Compound I-73, (R)—N-cyclopropyl-2-(1-(2-(5-fluoro-2-methoxyphenyl)-2-isopropoxyethyl)-5-methyl-2,4-dioxo-6-(2H-1,2,3-triazol-2-yl)-1,4-dihydrothieno[2,3-d]pyrimidin-3(2H)-yl)-2-methylpropanamide]	0.4 (≈ 0.684 µM)	0.4 (≈ 0.684 µM)	2 (≈ 3.42 µM)	2 (≈ 3.42 µM)	0.4 (≈ 0.684 µM)	0.4 (≈ 0.684 µM)	1 to 5	1 to 5	0.25 to 1 (≈ 0.428 to 1.71 µM)	1.01 to 2 (≈ 1.73 to 3.42 µM)	5 to 10	5 to 10	0.25 to 1 (≈ 0.428 to 1.71 µM)	0.06 to 0.249 (≈ 0.103 to 0.426 µM)	2 (≈ 3.42 µM)	2 (≈ 3.42 µM)	0.25 to 1 (≈ 0.428 to 1.71 µM)	0.25 to 1 (≈ 0.428 to 1.71 µM)	> 50	> 50	
COc1ccc(F)cc1[C@H](Cn1c(=O)n(C(C)(C)C(=O)N2CCCC2)c(=O)c2c(C)c(-n3nccn3)sc21)OCCN(C)C [Compound I-75, (R)-1-(2-(2-(dimethylamino)ethoxy)-2-(5-fluoro-2-methoxyphenyl)ethyl)-5-methyl-3-(2-methyl-1-oxo-1-(pyrrolidin-1-yl)propan-2-yl)-6-(2H-1,2,3-triazol-2-yl)thieno[2,3-d]pyrimidine-2,4(1H,3H)-dione]	> 50	> 50	> 50	> 50	> 50	> 50	1 to 5	1 to 5	2.1 to 4 (≈ 3.35 to 6.37 µM)	1.01 to 2 (≈ 1.61 to 3.19 µM)	> 40	> 40	2.1 to 4 (≈ 3.35 to 6.37 µM)	2.01 to 4 (≈ 3.2 to 6.37 µM)	> 50	> 50	2.1 to 4 (≈ 3.35 to 6.37 µM)	2.01 to 4 (≈ 3.2 to 6.37 µM)	> 50	> 50	
